# Patent US20240058464A1 (Fortis Therapeutics, Inc., priority 2021, published 2024)
# Legend:
# [1] = tested on: CD46 expression; experiment: CD46 expression by RNA-sequencing in paired tumor biopsies before and after therapy; details: paired biopsies; for CD46 expression, Post-Treatment Biopsy / CD46 expression, Pre-Treatment Biopsy: RNA-seq log2-transformed counts;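 on all read-outs here: FFPE human tumor biopsies, exome-capture RNA-seq, reads aligned to GRCh37, counts normalized for GC content, length and depth, summed per gene, log2-transformed, samples paired before versus after therapy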
# [2] = tested on: CD46 expression; experiment: CD46 expression by RNA-sequencing in unpaired pre-treatment and post-treatment tumor biopsies; format: in vivo, human; details: for CD46 expression Post: post-treatment biopsies
# [3] = Biliary Cancer, Post minus Pre, unpaired biopsies, log2-transformed counts
# [4] = Biliary Cancer, post- vs pre-treatment unpaired biopsies
# [5] = Biliary Cancer, unpaired, RNA-seq log2-transformed normalized counts
# [6] = Colorectal Cancer, Post minus Pre, unpaired biopsies, log2-transformed counts
# [7] = Colorectal Cancer, post- vs pre-treatment unpaired biopsies
# [8] = Colorectal Cancer, unpaired, RNA-seq log2-transformed normalized counts
# [9] = Esophageal Cancer, Post minus Pre, unpaired biopsies, log2-transformed counts
# [10] = Esophageal Cancer, post- vs pre-treatment unpaired biopsies
# [11] = Esophageal Cancer, unpaired, RNA-seq log2-transformed normalized counts
# [12] = Gastric Cancer, Post minus Pre, unpaired biopsies, log2-transformed counts
# [13] = Gastric Cancer, post- vs pre-treatment unpaired biopsies
# [14] = Gastric Cancer, unpaired, RNA-seq log2-transformed normalized counts
SMILES,CD46 expression diff (post minus pre) ([1]; Colorectal Cancer),Percent Change in CD46 expression ([1]; Colorectal Cancer) [%],"CD46 expression, Post-Treatment Biopsy ([1]; Colorectal Cancer)",CD46 expression diff (post minus pre) ([1]; Esophageal Cancer),Percent Change in CD46 expression ([1]; Esophageal Cancer) [%],"CD46 expression, Post-Treatment Biopsy ([1]; Esophageal Cancer)",CD46 expression diff (post minus pre) ([1]; Pancreatic Cancer),Percent Change in CD46 expression ([1]; Pancreatic Cancer) [%],"CD46 expression, Post-Treatment Biopsy ([1]; Pancreatic Cancer)","CD46 expression diff [2, 3]","CD46 expression Percentage change [2, 4] [%]","CD46 expression Post [2, 5]","CD46 expression diff [2, 6]","CD46 expression Percentage change [2, 7] [%]","CD46 expression Post [2, 8]","CD46 expression diff [2, 9]","CD46 expression Percentage change [2, 10] [%]","CD46 expression Post [2, 11]","CD46 expression diff [2, 12]","CD46 expression Percentage change [2, 13] [%]",other results
Nc1nc2c(c(=O)[nH]1)N(C=O)C(CNc1ccc(C(=O)N[C@@H](CCC(=O)O)C(=O)O)cc1)CN2 (stereo partly shown) [leucovorin],−0.07,−1.0,6.30,−0.14,−2.3,5.74,0.09,1.5,5.92,0.00,0.1,5.92,0.08,1.2,6.46,−0.05,−0.9,5.84,−0.11,−1.8,"CD46 expression Post [2, 14]: 5.68; CD46 expression diff ([2]; Pancreatic Cancer, post minus pre, unpaired biopsies): −0.15; CD46 expression Percentage change ([2]; Pancreatic Cancer, post vs pre, unpaired biopsies): −2.5%; CD46 expression Post ([2]; Pancreatic Cancer, log2-transformed RNA-seq counts): 5.76"
CCNC(=O)[C@@H]1CCCN1C(=O)[C@H](CCCNC(=N)N)NC(=O)[C@H](CC(C)C)NC(=O)[C@@H](CC(C)C)NC(=O)[C@H](Cc1ccc(O)cc1)NC(=O)[C@H](CO)NC(=O)[C@H](Cc1c[nH]c2ccccc12)NC(=O)[C@H](Cc1c[nH]cn1)NC(=O)[C@@H]1CCC(=O)N1 [leuprolide],,,,,,,,,,,,,,,,,,,,,"CD46 expression diff (post minus pre) ([1]; Prostate Cancer): −0.19; Percent Change in CD46 expression ([1]; Prostate Cancer): −3.1%; CD46 expression, Post-Treatment Biopsy ([1]; Prostate Cancer): 5.92; CD46 expression, Pre-Treatment Biopsy ([1]; Prostate Cancer): 6.11; CD46 expression diff ([2]; Breast Cancer, post minus pre, unpaired biopsies): −0.15; CD46 expression Percentage change ([2]; Breast Cancer, post vs pre, unpaired biopsies): −2.3%; CD46 expression Post ([2]; Breast Cancer, log2-transformed RNA-seq counts): 6.18; CD46 expression Pre ([2]; Breast Cancer, pre-treatment biopsies, log2-transformed RNA-seq counts): 6.33; CD46 expression diff ([2]; Prostate Cancer, Post minus Pre, unpaired biopsies, log2-transformed counts): −0.10; CD46 expression Percentage change ([2]; Prostate Cancer, post- vs pre-treatment unpaired biopsies): −1.6%; CD46 expression Post ([2]; Prostate Cancer, unpaired, RNA-seq log2-transformed normalized counts): 6.08"
O=C(c1cc(Cc2n[nH]c(=O)c3ccccc23)ccc1F)N1CCN(C(=O)C2CC2)CC1 [olaparib],,,,,,,,,,,,,,,,,,,,,"CD46 expression diff (post minus pre) ([1]; Ovarian Cancer): −0.14; Percent Change in CD46 expression ([1]; Ovarian Cancer): −2.5%; CD46 expression, Post-Treatment Biopsy ([1]; Ovarian Cancer): 5.51; CD46 expression diff ([2]; Breast Cancer, Post minus Pre, unpaired biopsies, log2-transformed counts): 0.04; CD46 expression Percentage change ([2]; Breast Cancer, post- vs pre-treatment unpaired biopsies): 0.6%; CD46 expression Post ([2]; Breast Cancer, unpaired, RNA-seq log2-transformed normalized counts): 6.15; CD46 expression diff ([2]; Ovarian Cancer, Post minus Pre, unpaired biopsies, log2-transformed counts): −0.02; CD46 expression Percentage change ([2]; Ovarian Cancer, post- vs pre-treatment unpaired biopsies): −0.3%; CD46 expression Post ([2]; Ovarian Cancer, unpaired, RNA-seq log2-transformed normalized counts): 5.70"
C=CC(=O)Nc1cc(Nc2nccc(-c3cn(C)c4ccccc34)n2)c(OC)cc1N(C)CCN(C)C [osimertinib],,,,,,,,,,,,,,,,,,,,,"CD46 expression diff (post minus pre) ([1]; Non-Small Cell Lung Cancer): −0.26; Percent Change in CD46 expression ([1]; Non-Small Cell Lung Cancer): −4.0%; CD46 expression diff ([2]; Non-Small Cell Lung Cancer, post minus pre, unpaired biopsies): −0.29; CD46 expression Percentage change ([2]; Non-Small Cell Lung Cancer, post vs pre, unpaired biopsies): −4.4%; CD46 expression Post ([2]; Non-Small Cell Lung Cancer, log2-transformed RNA-seq counts): 6.23"
O=C1[O][Pt]2([NH][C@@H]3CCCC[C@H]3[NH]2)[O]C1=O [oxaliplatin],−0.04,−0.6,6.26,−0.17,−2.9,5.74,0.06,1.0,5.93,0.05,0.9,5.91,0.04,0.6,6.42,−0.06,−1.0,5.85,−0.12,−2.1,"CD46 expression, Pre-Treatment Biopsy ([1]; Colorectal Cancer): 6.30; CD46 expression, Pre-Treatment Biopsy ([1]; Esophageal Cancer): 5.91; CD46 expression diff (post minus pre) ([1]; Gastric Cancer): 0.05; Percent Change in CD46 expression ([1]; Gastric Cancer): 0.8%; CD46 expression, Post-Treatment Biopsy ([1]; Gastric Cancer): 5.69; CD46 expression, Pre-Treatment Biopsy ([1]; Gastric Cancer): 5.64; CD46 expression, Pre-Treatment Biopsy ([1]; Pancreatic Cancer): 5.87; CD46 expression Post [2, 14]: 5.66; CD46 expression diff ([2]; Pancreatic Cancer, Post minus Pre, unpaired biopsies, log2-transformed counts): −0.13; CD46 expression Percentage change ([2]; Pancreatic Cancer, post- vs pre-treatment unpaired biopsies): −2.2%"
